Laboratory results: PubChem BioAssay (NCI)
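In this assay, cells in 96-well plates receive the compound at five concentrations for 48 hours. Endpoints are linearly interpolated between the surrounding concentrations. GI50 is the concentration that inhibits growth by half. TGI denotes the concentration required for complete inhibition of growth.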

Tests used:
Assay in all cases: growth of human tumour cells (NCI), 48 h
SR leukemia = system: SR leukemia
SK-MEL-2 melanoma = system: SK-MEL-2 melanoma
SF-295 CNS = system: SF-295 CNS
SK-MEL-28 melanoma = system: SK-MEL-28 melanoma
UO-31 renal = system: UO-31 renal
SN12C renal = system: SN12C renal
CCRF-CEM leukemia = system: CCRF-CEM leukemia
786-0 renal = system: 786-0 renal
RXF 393 renal = system: RXF 393 renal
RPMI-8226 leukemia = system: RPMI-8226 leukemia
LOX IMVI melanoma = system: LOX IMVI melanoma
SK-OV-3 ovarian = system: SK-OV-3 ovarian
MDA-MB-435 = system: MDA-MB-435
HCT-15 colon = system: HCT-15 colon
OVCAR-4 ovarian = system: OVCAR-4 ovarian
A549 NSCLC = system: A549 NSCLC
NCI-H226 lung = system: NCI-H226 lung
MOLT-4 leukemia = system: MOLT-4 leukemia
SW-620 colon = system: SW-620 colon
SF-539 CNS = system: SF-539 CNS
SNB-75 CNS = system: SNB-75 CNS
HCT-116 colon = system: HCT-116 colon
ACHN renal = system: ACHN renal
HT29 colon = system: HT29 colon
IGROV1 ovarian = system: IGROV1 ovarian
MDA-MB-231 breast = system: MDA-MB-231 breast
SNB-19 CNS = system: SNB-19 CNS
U251 CNS = system: U251 CNS
K-562 leukemia = system: K-562 leukemia
EKVX NSCLC = system: EKVX NSCLC
CAKI-1 renal = system: CAKI-1 renal
M14 melanoma = system: M14 melanoma
HS 578T breast = system: HS 578T breast
OVCAR-8 ovarian = system: OVCAR-8 ovarian
BT-549 breast = system: BT-549 breast
UACC-62 melanoma = system: UACC-62 melanoma
HOP-92 NSCLC = system: HOP-92 NSCLC
DU-145 prostate = system: DU-145 prostate
NCI-H460 lung = system: NCI-H460 lung
MCF7 breast = system: MCF7 breast
T-47D breast = system: T-47D breast
OVCAR-3 ovarian = system: OVCAR-3 ovarian
TK-10 renal = system: TK-10 renal
SF-268 CNS = system: SF-268 CNS
UACC-257 melanoma = system: UACC-257 melanoma
HOP-62 NSCLC = system: HOP-62 NSCLC
COLO 205 colon = system: COLO 205 colon
HL-60(TB) leukemia = system: HL-60(TB) leukemia
KM12 colon = system: KM12 colon
PC-3 prostate = system: PC-3 prostate
NCI-H522 lung = system: NCI-H522 lung
SK-MEL-5 melanoma = system: SK-MEL-5 melanoma

O=S(=O)(NC(=S)Nc1ccccc1)c1ccc(N2N=C3c4ccccc4CC3C2c2ccc(Cl)cc2)cc1 (centres undefined)
GI50 (SR leukemia): 14.7 µM | TGI (SR leukemia): 36.6 µM | GI50 (SK-MEL-2 melanoma): 23.4 µM | TGI (SK-MEL-2 melanoma): 47.9 µM | GI50 (SF-295 CNS): 35.5 µM | TGI (SF-295 CNS): > 100 µM | GI50 (SK-MEL-28 melanoma): 29.4 µM | TGI (SK-MEL-28 melanoma): 77 µM | GI50 (UO-31 renal): 19 µM | TGI (UO-31 renal): 38.1 µM | GI50 (SN12C renal): 24.5 µM | TGI (SN12C renal): 55.6 µM | GI50 (CCRF-CEM leukemia): 19.7 µM | TGI (CCRF-CEM leukemia): 57.5 µM | GI50 (786-0 renal): 32.4 µM | TGI (786-0 renal): > 100 µM | GI50 (RXF 393 renal): 43.1 µM | TGI (RXF 393 renal): > 100 µM | GI50 (RPMI-8226 leukemia): 19.6 µM | TGI (RPMI-8226 leukemia): 66.7 µM | GI50 (LOX IMVI melanoma): 19.5 µM | TGI (LOX IMVI melanoma): 39 µM | GI50 (SK-OV-3 ovarian): 40.7 µM | TGI (SK-OV-3 ovarian): > 100 µM | GI50 (MDA-MB-435): 44.8 µM | TGI (MDA-MB-435): > 100 µM | GI50 (HCT-15 colon): 22.4 µM | TGI (HCT-15 colon): 54.8 µM | GI50 (OVCAR-4 ovarian): 42.2 µM | TGI (OVCAR-4 ovarian): > 100 µM | GI50 (A549 NSCLC): 20.9 µM | TGI (A549 NSCLC): 51.7 µM | GI50 (NCI-H226 lung): 41.4 µM | TGI (NCI-H226 lung): > 100 µM | GI50 (MOLT-4 leukemia): 15.9 µM | TGI (MOLT-4 leukemia): 39.3 µM | GI50 (SW-620 colon): 29.7 µM | TGI (SW-620 colon): 75.7 µM | GI50 (SF-539 CNS): 24.2 µM | TGI (SF-539 CNS): 45.7 µM | GI50 (SNB-75 CNS): 39.7 µM | TGI (SNB-75 CNS): > 100 µM | GI50 (HCT-116 colon): 21.6 µM | TGI (HCT-116 colon): 55.2 µM | GI50 (ACHN renal): 25.8 µM | TGI (ACHN renal): 60.7 µM | GI50 (HT29 colon): 41.6 µM | TGI (HT29 colon): > 100 µM | GI50 (IGROV1 ovarian): 20.2 µM | TGI (IGROV1 ovarian): 49.3 µM | GI50 (MDA-MB-231 breast): 87.1 µM | TGI (MDA-MB-231 breast): > 100 µM | GI50 (SNB-19 CNS): 21.8 µM | TGI (SNB-19 CNS): 46.4 µM | GI50 (U251 CNS): 19.7 µM | TGI (U251 CNS): 39.9 µM | GI50 (K-562 leukemia): 16.4 µM | TGI (K-562 leukemia): 42.1 µM | GI50 (EKVX NSCLC): 27.4 µM | TGI (EKVX NSCLC): 60.5 µM | GI50 (CAKI-1 renal): 26.1 µM | TGI (CAKI-1 renal): 91.4 µM | GI50 (M14 melanoma): 36.4 µM | TGI (M14 melanoma): > 100 µM | GI50 (HS 578T breast): 30 µM | TGI (HS 578T breast): 68.2 µM | GI50 (OVCAR-8 ovarian): 26.8 µM | TGI (OVCAR-8 ovarian): 71.1 µM | GI50 (BT-549 breast): 33.2 µM | TGI (BT-549 breast): 78.3 µM | GI50 (UACC-62 melanoma): 18.3 µM | TGI (UACC-62 melanoma): 38.8 µM | GI50 (HOP-92 NSCLC): 18.1 µM | TGI (HOP-92 NSCLC): 40.2 µM | GI50 (DU-145 prostate): 24.9 µM | TGI (DU-145 prostate): 51.4 µM | GI50 (NCI-H460 lung): 22.2 µM | TGI (NCI-H460 lung): 60 µM | GI50 (MCF7 breast): 23.5 µM | TGI (MCF7 breast): 54.3 µM | GI50 (T-47D breast): 36.3 µM | TGI (T-47D breast): > 100 µM | GI50 (OVCAR-3 ovarian): 46.3 µM | TGI (OVCAR-3 ovarian): > 100 µM | GI50 (TK-10 renal): 30.2 µM | TGI (TK-10 renal): 99.4 µM | GI50 (SF-268 CNS): 20.7 µM | TGI (SF-268 CNS): 51.1 µM | GI50 (UACC-257 melanoma): 29.5 µM | TGI (UACC-257 melanoma): 70.5 µM | GI50 (HOP-62 NSCLC): 41.3 µM | TGI (HOP-62 NSCLC): > 100 µM | GI50 (COLO 205 colon): 21.6 µM | TGI (COLO 205 colon): 44.3 µM | GI50 (HL-60(TB) leukemia): 21 µM | TGI (HL-60(TB) leukemia): 46.2 µM | GI50 (KM12 colon): 19.4 µM | TGI (KM12 colon): 55.3 µM | GI50 (PC-3 prostate): 13.8 µM | TGI (PC-3 prostate): 28.1 µM | GI50 (NCI-H522 lung): 18.1 µM | TGI (NCI-H522 lung): 38.6 µM | GI50 (SK-MEL-5 melanoma): 20.4 µM | TGI (SK-MEL-5 melanoma): 40.9 µM
